The assay concerns the target TcUGM (UDP-galactopyranose mutase from Trypanosoma cruzi) (Trypanosoma cruzi, UniProt Q4E1W2). As to the kind of experiment: X-ray crystal structure, […] Å. It counts as binding. The settings on record: UDP complex, pH 7.5.

Take `Cc1cc2nc3c(=O)[nH]c(=O)nc-3n(C[C@H](O)[C@H](O)[C@H](O)COP(=O)(O)OP(=O)(O)OC[C@H]3O[C@@H](n4cnc5c(N)ncnc54)[C@H](O)[C@@H]3O)c2cc1C` [FAD]: the “X-ray crystal structure, 2.25 Å” value (oxidized enzyme) is recorded as “In the oxidized state, the electron density maps are consistent with a planar isoalloxazine”.

As for `Cc1cc2c(cc1C)N(C[C@H](O)[C@H](O)[C@H](O)COP(=O)(O)OP(=O)(O)OC[C@H]1O[C@@H](n3cnc4c(N)ncnc43)[C@H](O)[C@@H]1O)c1[nH]c(=O)[nH]c(=O)c1N2` [FADH^−], the “X-ray crystal structure, 2.25 Å” value (crystals reduced by soaking in 60 mM dithionite) is “In the reduced enzyme, the FAD exhibits a butterfly-like conformation”.

The values are drawn from article PMC3426654 (Biochemistry, 2012).
